From the NIST ThermoML archive (doi:10.1016/j.jct.2004.09.002)
Numbers after ± are expanded uncertainties.

Columns and labels:
[1] = Boiling temperature at pressure P; conditions: 101.33 kPa; Liquid; Fischer boiling point apparatus
[2] = refractive index (Na D-line) (dimensionless); conditions: 293.15 K; 101.33 kPa; Liquid; Standard Abbe refractometry
[3] = 293.15 K; 101.33 kPa; Liquid; Vibrating tube method

SMILES	Boiling temperature at pressure P [1]	refractive index [2]	mass density [3]
O [water]	100.1 ± 0.2 °C	1.3324 ± 0.0012	
CC(=O)OC1CCCCC1 [cyclohexyl ethanoate]	177.30 ± 0.2 °C	1.4434 ± 0.0013	970.3 ± 1 kg/m3
CCCC(=O)O [butanoic acid]		1.3982 ± 0.0012	957.6 ± 0.5 kg/m3
